Values after ≈ are worked out from the molar mass of the structure shown. Non-standard residues stand in square brackets, D forms with d. Residues, ends and D or L forms follow the SMILES beside them.
How the values were obtained:
[1] = Calcein leakage from liposomes; format: biochemical; settings: 10 min at room temperature, pH 6.0, triplicate assays
Method: Liposomes were prepared as previously described with some modifications. S. aureus-mimetic liposomes[17][26] and mammalian-mimetic liposomes[27] were prepared by combining phospholipid mixtures (cardiolipin: L-α-phosphatidyl-DL-glycerol = 1:3 (mol/mol)) and 2-dioleoyl-sn-glycero-3-phosphocholine:1,2-dioleoyl-sn-glycero-3-phosphoethanolamine:Cholesterol = 4:2:3 (mol/mol/mol)), respectively. A 50 mM calcein solution was prepared by mixing 100 mg calcein with 3.1 ml of solution A (0.3 ml of 1 M Tris-HCl (pH 7.4), 0.9 ml of 5 M sodium hydroxide, and 13.8 ml of water). The liposomes were prepared by adding 1 ml of calcein solution to the dried lipid mixtures, followed by vortexing for 10 min at room temperature. The liposome solution (1 ml) was centrifuged at 3000 × g for 10 min, and the precipitate was resuspended in 1 ml of 20 mM Tris-HCl (pH 7.4) containing 150 mM sodium chloride. The centrifugation step was repeated two more times. Finally, the precipitate was suspended in 100 μl of 20 mM Tris-HCl (pH 7.4) containing 150 mM sodium chloride.
Liposome suspensions were prepared by diluting of 1 μl of liposomes into 40 ml of 10 mM phosphate buffer (pH6.0) containing 130 mM sodium chloride. Peptides were serially diluted in 10 mM phosphate buffer (pH 6.0) containing 130 mM sodium chloride and 1% dimethyl sulfoxide. […]

[2] = test system: E. coli; format: cell-based, Escherichia coli W3110 (NBRC12713); settings: pH 6
Method: (§1) S. aureus (NBRC100910), E. coli W3110 (NBRC12713), E. hirae (NBRC3181), C. albicans (NBRC1385), and S. Typhimurium 14028s (ATCC14028)[2] were used in this study. S. aureus, E. coli, and S. Typhimurium were grown at 37 °C with aeration in Muller-Hinton II medium (BD Biosciences). E. hirae was grown at 37 °C in LB medium (Nacalai Tesque, Inc.) containing 0.5% glucose (w/v). C. albicans was grown at room temperature with aeration in YM medium (BD Biosciences). All experiments were conducted using bacterial cells and C. albicans in the logarithmic-phase of growth.
(§2) Bacterial suspensions in Muller-Hinton II medium were adjusted to an optical density of 550 nm (OD550) = 0.0011. C. albicans suspensions in YM medium were adjusted to OD650 = 0.033. Peptides were serially diluted in 10 mM phosphate buffer (pH 6.0) containing 130 mM sodium chloride, 0.2% bovine serum albumin, and 2.56% dimethyl sulfoxide. The peptide solution (100 μl) was mixed with 100 μl of bacteria or C. albicans suspensions. Bacterial cultures were incubated for one day at 37 °C. C. albicans cultures were incubated for two days at room temperature. Cell growth was monitored optically and the MIC was determined.

[3] = test system: S. aureus; test: Inhibition of antimicrobial activity by bacterial cell wall components; format: cell-based, Staphylococcus aureus; settings: D-form 1.9 μg/ml, L-form 7.5 μg/ml, 10 min
Method: (§3) Bacteria and C. albicans were suspended in growth medium. Peptides suspended in dimethyl sulfoxide were serially diluted in 10 mM phosphate buffer (pH 6.0) containing 130 mM sodium chloride, 0.2% bovine serum albumin as described previously. In order to examine the effects of bovine serum albumin on the assay, 10 mM phosphate buffer (pH 6.0) containing 130 mM sodium chloride, was used for the dilution of peptides. Peptide solution (500 μl) was added to 500 μl of bacteria suspensions and then the mixture was incubated at 37 °C for 10 min. In order to examine the effects of culture medium components on the assay, bacteria suspension was prepared with 10 mM phosphate buffer (pH 6.0) containing 130 mM sodium chloride. Alternatively, 500 μl of peptide solution was added to 500 μl of C. albicans suspensions and the mixture was incubated at room temperature for 10 min. The inhibitory effects of the bacterial components were analyzed by incubating 450 μl of S. aureus suspension with 500 μl of peptide solution plus 50 μl of inhibitor samples at 37 °C for 10 min. Then, the peptide/bacteria suspensions were diluted and plated onto LB agar, LB agar containing 0.5% glucose, or YM agar. After cultivation of the plates, colony forming units (CFU) in the peptide/bacteria suspension were calculated based on the average of triplicate plates.
Peptidoglycan (120 μg) prepared from S. aureus was added to 1 mg/ml of lysozyme in phosphate buffered saline (150 μl)[33]. Peptidoglycan without lysozyme and lysozyme without peptidoglycan were also prepared as controls. Samples were incubated overnight at 37 °C, and then incubated at 100 °C for 15 min to inactivate lysozyme. For heat-inactivation of peptidoglycan, 600 μg of peptidoglycan suspended in water (300 μl) was incubated at 100 °C for 15 min. The samples were sonicated for 10 sec at setting 1 using a Branson sonifier model S-150D. These samples were used as inhibitor samples for antimicrobial activity assays.

[4] = cited from earlier work
[5] = test system: E. hirae; test: Assay for antimicrobial activity (10 min exposure, CFU); format: cell-based, Enterococcus hirae (NBRC3181); settings: 10 min at 37 °C, triplicate plates
Method: as §1
(§4) Bacteria and C. albicans were suspended in growth medium. Peptides suspended in dimethyl sulfoxide were serially diluted in 10 mM phosphate buffer (pH 6.0) containing 130 mM sodium chloride, 0.2% bovine serum albumin as described previously. In order to examine the effects of bovine serum albumin on the assay, 10 mM phosphate buffer (pH 6.0) containing 130 mM sodium chloride, was used for the dilution of peptides. […] The inhibitory effects of the bacterial components were analyzed by incubating 450 μl of S. aureus suspension with 500 μl of peptide solution plus 50 μl of inhibitor samples at 37 °C for 10 min. […] After cultivation of the plates, colony forming units (CFU) in the peptide/bacteria suspension were calculated based on the average of triplicate plates.

[6] = test system: S. Typhimurium; test: as above; format: cell-based, Salmonella enterica serovar Typhimurium 14028s; settings: 10 min at 37 °C, triplicate plates
Method: as §1, §4

[7] = test system: Staphylococcus aureus; settings: cited from earlier work
From the text: We determined minimum inhibitory concentrations (MICs) of other ant ...

[8] = test system: E. coli; test: Assay for antimicrobial activity (10 min exposure, CFU); format: cell-based, Escherichia coli W3110 (NBRC12713); settings: 10 min at 37 °C, triplicate plates
Method: as §1, §4

[9] = test system: C. albicans; format: cell-based, Candida albicans (NBRC1385)
Method: as §1, §2

[10] = test system: S. aureus; format: cell-based, Staphylococcus aureus (NBRC100910)
Method: as §1, §2

[11] = test system: S. aureus; test: Assay for antimicrobial activity (10 min exposure, CFU); format: cell-based, Staphylococcus aureus (NBRC100910); settings: for antimicrobial activity (CFU), D-form compared with L-form: 10 min at 37 °C
Method: as §1, §3

Question: With `CC(C)C[C@@H](NC(=O)[C@H](N)CCCCN)C(=O)N[C@H](CCCCN)C(=O)N[C@H](CC(C)C)C(=O)N[C@H](CC(C)C)C(=O)N[C@H](CC(C)C)C(=O)N[C@H](CC(C)C)C(=O)N[C@H](CC(C)C)C(=O)N[C@H](CCCCN)C(=O)N[C@H](CC(C)C)C(=O)N[C@H](CCCCN)C(N)=O` [D-form KLKLLLLLKLK-NH2] (H-[dK][dL][dK][dL][dL][dL][dL][dL][dK][dL][dK]-NH2; N-terminus assumed) as the compound, how does the “calcein release from liposomes” value ([1]; S. aureus-mimetic liposomes (cardiolipin:phosphatidylglycerol 1:3)) read?
Answer: The value was “released calcein”.

Question: And the “calcein release from liposomes” value ([1]; mammalian-mimetic liposomes (phosphatidylcholine:phosphatidylethanolamine:cholesterol 4:2:3))?
Answer: The value was “neither D-form nor L-form KLKLLLLLKLK-NH2 was able to release calcein”.

Question: And the MIC [2]?
Answer: Its MIC is 8 µg/mL (≈ 6.05 µM).

Question: What about the “inhibition of the antimicrobial effect by S. aureus peptidoglycan” value ([3]; 40 μg/ml S. aureus peptidoglycan) of the same compound?
Answer: The value was “almost inhibited”.

Question: What about the “inhibition of the antimicrobial activity by lipopolysaccharide from E. coli” value [3] of the same compound?
Answer: The value was “preferentially inhibited”.

Question: And the “inhibition of the antimicrobial activity by peptidoglycan from E. coli” value [3]?
Answer: The value was “weak inhibitory effect”.

Question: What about the “inhibition of the antimicrobial activity by synthetic E. coli lipid A” value [3] of the same compound?
Answer: Its value is “preferentially inhibited”.

Question: What about the “inhibition of the antimicrobial effect by lipoteichoic acid from S. aureus” value [3] of the same compound?
Answer: The value was “inhibited the antimicrobial effect of both D-form and L-form peptides similarly”.

Question: What about the “persistence in bacterial culture medium, D-form compared with L-form” value [4] of the same compound?
Answer: The value was “persist longer”.

Question: And the “antimicrobial activity (CFU), D-form compared with L-form” value [5]?
Answer: The value was “higher antimicrobial activity”.

Question: And the “antimicrobial activity (CFU), D-form compared with L-form” value [6]?
Answer: Its value is “higher antimicrobial activity”.

Question: And the “antimicrobial activity, D-form compared with L-form” value [7]?
Answer: Its value is “higher antimicrobial activity”.

Question: What about the “antimicrobial activity (CFU), D-form compared with L-form” value [8] of the same compound?
Answer: Its value is “higher antimicrobial activity”.

Question: What about the MIC [9] of the same compound?
Answer: The MIC was 32 µg/mL (≈ 24.2 µM).

Question: And the “fold by which the MIC of the D-form is lower than that of the L-form” value ([10]; S. aureus)?
Answer: Its value is 16 fold.

Question: And the MIC ([10]; pH 6)?
Answer: Its MIC is 1 µg/mL (≈ 0.757 µM).

Question: What about the “antimicrobial activity relative to the standard assay condition” value ([11]; 10 min, in the absence of culture medium and bovine serum albumin) of the same compound?
Answer: The value was “lower”.

Question: What about the “antimicrobial activity (CFU), D-form compared with L-form” value ([11]; in the absence of culture medium and/or bovine serum albumin) of the same compound?
Answer: The value was “higher antimicrobial activity”.

Question: What about the “antimicrobial activity (CFU), D-form compared with L-form” value ([11]; standard assay with culture medium and 0.2% BSA, triplicate plates) of the same compound?
Answer: Its value is “higher antimicrobial activity”.

Question: What about the “peptide concentration at which D-form and L-form displayed similar antimicrobial activity” value ([11]; 10 min exposure) of the same compound?
Answer: The value was 1.9 µg/mL.
